Assay results taken from patent US20260347372A1, “SMALL MOLECULE INHIBITORS OF KRAS G12D MUTANT” (MERCK SHARP & DOHME LLC, priority 2023, published 2026).

Tests used:
[1] = biological target: T1, AsPC-1 cells (Homo sapiens, UniProt P01116, G12D); assay: Cellular phospho-ERK assay, AsPC-1 cells (KRAS G12D); format: cell-based; settings: 2 hours, read-out: AsPC1 pERK IC50
T1 construct: p-ERK/total ERK AlphaSureFire read-out
Outline: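 PANC08.13 or AsPC-1 cells (homozygous KRAS G12D) were seeded overnight, then treated for 2 h at 37 °C with a 10-point 1:3 titration from 30 μM. Lysates were assayed by AlphaLISA SureFire for p-ERK and total ERK. IC50 came from a 4-parameter fit of the p-ERK/total ERK ratio.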

[2] = biological target: KRAS G12V (Homo sapiens, UniProt P01116, G12V); assay: SOS-catalyzed nucleotide exchange assay, KRAS G12V (Procedure A); format: biochemical; settings: GNE
KRAS G12V, sequence (P01116 with tags, fused parts or gaps isoform P01116-2 G12V): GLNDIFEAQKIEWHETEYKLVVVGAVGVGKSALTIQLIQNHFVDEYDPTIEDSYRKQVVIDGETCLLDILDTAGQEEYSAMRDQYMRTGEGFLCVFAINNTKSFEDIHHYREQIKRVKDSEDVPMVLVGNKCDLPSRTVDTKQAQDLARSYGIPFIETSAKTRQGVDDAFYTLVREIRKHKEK
Outline: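 Biotinylated KRAS G12V was loaded with Bodipy-GDP alongside Terbium-streptavidin to form a TR-FRET complex, which was preincubated with compounds for 60 minutes in 384-well plates. Human SOS protein and unlabeled GTP were then added for 90 minutes, giving final concentrations of 1.25 nM KRAS-G12V, 160 nM SOS and 3 mM GTP. The 520/495 nm emission ratio was read on an Envision.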

[3] = biological target: KRAS WT (Homo sapiens, UniProt P01116); assay: SOS-catalyzed nucleotide exchange assay, KRAS WT (Procedure A); format: biochemical; settings: GNE
KRAS WT, sequence (P01116 with tags, fused parts or gaps isoform P01116-2): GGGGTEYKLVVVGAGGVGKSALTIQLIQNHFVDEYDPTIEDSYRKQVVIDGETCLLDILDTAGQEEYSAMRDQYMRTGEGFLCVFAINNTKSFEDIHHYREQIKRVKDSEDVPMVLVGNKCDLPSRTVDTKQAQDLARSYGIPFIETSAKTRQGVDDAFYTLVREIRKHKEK
Outline: (§1)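 Preformed TR-FRET complex of biotinylated KRAS (G12C carries C51S/C80L/C118S; others native sequence), Bodipy-GDP and Tb-streptavidin preincubated with compound 60 min at room temperature. Exchange started with human SOS plus 3 mM GTP for 60 min (G13D 30 min). Final RAS/SOS: G12C 3/40 nM; WT, G12D 1/40 nM; G13D 1.25/0 nM. 520/495 nm ratio normalised, fitted to four-parameter logistic.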

[4] = biological target: KRAS G12D (Homo sapiens, UniProt P01116, G12D); assay: SOS-catalyzed nucleotide exchange assay, KRAS G12D (Procedure A); format: biochemical; settings: guanine nucleotide exchange (GNE)
KRAS G12D, sequence (P01116 with tags, fused parts or gaps isoform P01116-2 G12D): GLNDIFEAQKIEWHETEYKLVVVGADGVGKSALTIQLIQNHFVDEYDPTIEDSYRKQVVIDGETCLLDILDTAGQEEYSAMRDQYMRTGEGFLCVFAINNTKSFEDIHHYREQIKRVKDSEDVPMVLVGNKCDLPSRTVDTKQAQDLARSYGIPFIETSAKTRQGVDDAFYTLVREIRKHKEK
Outline: as §1

T1 sequence (P01116 1-188 isoform P01116-2 G12D): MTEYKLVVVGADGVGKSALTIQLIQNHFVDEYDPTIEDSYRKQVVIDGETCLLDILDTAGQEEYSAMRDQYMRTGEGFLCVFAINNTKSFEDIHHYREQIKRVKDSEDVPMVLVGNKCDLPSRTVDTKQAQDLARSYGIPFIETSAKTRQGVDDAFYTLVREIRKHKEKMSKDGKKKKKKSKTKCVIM

For `C#Cc1c(F)ccc2cc3[nH]ncc3c(-c3nccc4c3sc3nc(OC[C@]5(CN6CC7(CCOC7)C6)CC5(F)F)nc(N5C[C@H]6CC[C@@H](C5)N6)c34)c12` [Ex-104, 2-(((1R)-1-(((4-((1R,5S)-3,8-diazabicyclo[3.2.1]octan-3-yl)-8-(5-ethynyl-6-fluoro-1H-benzo[f]indazol-4-yl)pyrido[4′,3′:4,5]thie-no[2,3-d]pyrimidin-2-yl)oxy)methyl)-2,2-difluorocyclopropyl)meth-yl)-6-oxa-2-azaspiro[3.4]octane], the IC50 [1] was 48.4 nM, the IC50 [2] was 631 nM and the IC50 [3] was 399 nM. The IC50 [4] was 1.94 nM.
`C#Cc1c(F)ccc2cc3[nH]ncc3c(-c3nccc4c3sc3nc(OC[C@]5(CN6CCC(CCc7cn(C)nn7)CC6)CC5(F)F)nc(N5C[C@H]6CC[C@@H](C5)N6)c34)c12` [Ex-105, 4-((1R,5S)-3,8-diazabicyclo[3.2.1]octan-3-yl)-2-(((R)-2,2-difluoro-1-((4-(2-(1-methyl-1H-1,2,3-triazol-4-yl)ethyl)piperidin-1-yl)methyl)cyclopropyl)methoxy)-8-(5-ethynyl-6-fluoro-1H-benzo[f]indazol-4-yl)pyrido[4′,3′:4,5]thie-no[2,3-d]pyrimidine] was tested, and the IC50 [1] was 67 nM, the IC50 [2] was 475 nM and the IC50 [3] was 279 nM. The IC50 [4] was 1.6 nM.
In the case of `C#Cc1c(F)ccc2cc3[nH]ncc3c(-c3nccc4c3sc3nc(OC[C@]5(CN6CCC7(CC6)CC(Cc6cn(C)nn6)C7)CC5(F)F)nc(N5C[C@H]6CC[C@@H](C5)N6)c34)c12` [Ex-106, 4-((1R,5S)-3,8-diazabicyclo[3.2.1]octan-3-yl)-2-(((R)-2,2-difluoro-1-((2-((1-methyl-1H-1,2,3-triazol-4-yl)methyl)-7-azaspiro[3.5]nonan-7-yl)methyl)cyclopropyl)methoxy)-8-(5-ethynyl-6-fluoro-1H-benzo[f]indazol-4-yl)pyrido[4′,3′:4,5]thie-no[2,3-d]pyrimidine], the IC50 [1] is reported as 74 nM, the IC50 [2] is reported as 1700 nM and the IC50 [3] is reported as 877 nM. It also gave an IC50 [4] of 2.03 nM.
Work on `C#Cc1c(F)ccc2cc3[nH]ncc3c(-c3nccc4c3sc3nc(OC[C@]5(CN6CCC6)CC5(F)F)nc(N5C[C@H]6CC[C@@H](C5)N6)c34)c12` [Ex-107, 2-(((R)-1-(azetidin-1-ylmethyl)-2,2-difluorocyclopropyl)meth-oxy)-4-((1R,5S)-3,8-diazabicyclo[3.2.1]octan-3-yl)-8-(5-ethynyl-6-fluoro-1H-benzo[f]indazol-4-yl)pyrido[4′,3′:4,5]thie-no[2,3-d]pyrimidine] yielded an IC50 [1] of 51.8 nM, an IC50 [2] of 1030 nM and an IC50 [3] of 800 nM. The IC50 [4] was 3.23 nM.
In the case of `C#Cc1c(F)ccc2cc3[nH]ncc3c(-c3nccc4c3sc3nc(OC[C@@]56CCCN5C[C@@H](F)C6)nc(N5CC6CCC(C5)N6)c34)c12` [Ex-108, 4-(3,8-diazabicyclo[3.2.1]octan-3-yl)-8-(5-ethynyl-6-fluoro-1H-benzo[f]indazol-4-yl)-2-(((2S,7aS)-2-fluorotetrahydro-1H-pyrrolizin-7a(5H)-yl)methoxy)pyrido[4′, 3′:4,5]thieno[2,3-d]pyrimidine], the IC50 [1] is reported as 16.2 nM, the IC50 [2] is reported as 372 nM and the IC50 [3] is reported as 215 nM. It also gave an IC50 [4] of 1.62 nM.
`C#Cc1c(F)ccc2cc3[nH]ncc3c(-c3nccc4c3sc3nc(OC[C@]5(CO)CC5(F)F)nc(N5C[C@H]6CC[C@@H](C5)N6)c34)c12` [Ex-109, ((1R)-1-(((4-((1R,5S)-3,8-diazabicyclo[3.2.1]octan-3-yl)-8-(5-ethynyl-6-fluoro-1H-benzo[f]indazol-4-yl)pyrido[4′,3′:4,5]thieno[2,3-d]pyrimidin-2-yl)oxy)methyl)-2,2-difluorocyclopropyl)methanol] gave an IC50 [1] of 1010 nM, an IC50 [2] greater than 11100 nM and an IC50 [3] greater than 11100 nM. For the same compound, the IC50 [4] was 25.9 nM.
With `C#Cc1c(F)ccc2cc3[nH]ncc3c(-c3nccc4c3sc3nc(OCC5(C(F)(F)F)CCOCC5)nc(N5C[C@H]6CC[C@@H](C5)N6)c34)c12` [Ex-110, 4-((1R,5S)-3,8-diazabicyclo[3.2.1]octan-3-yl)-8-(5-ethynyl-6-fluoro-1H-benzo[f]indazol-4-yl)-2-((4-(trifluoromethyl)tetrahydro-2H-pyran-4-yl)methoxy)pyrido[4′,3′:4,5]thieno[2,3-d]pyrimidine] the IC50 [1] was 8280 nM, the IC50 [2] was greater than 11100 nM and the IC50 [3] was greater than 11100 nM. For the same compound, the IC50 [4] was 2050 nM.
Compound `C#Cc1c(F)ccc2cc3[nH]ncc3c(-c3nccc4c3sc3nc(OC[C@]5(CN6CCC(COC)CC6)CC5(F)F)nc(N5C[C@H]6CC[C@@H](C5)N6)c34)c12` [Ex-111, 4-((1R,5S)-3,8-diazabicyclo[3.2.1]octan-3-yl)-2-(((R)-2,2-difluoro-1-((4-(methoxymethyl)piperidin-1-yl)methyl)cyclopropyl)methoxy)-8-(5-ethynyl-6-fluoro-1H-benzo[f]indazol-4-yl)pyrido[4′,3′:4,5]thieno[2,3-d]pyrimidine] has an IC50 [1] of 172 nM, an IC50 [2] of 4400 nM and an IC50 [3] of 1720 nM. For the same compound, the IC50 [4] was 5.43 nM.
For `Cc1cc2[nH]ncc2c(-c2nccc3c2sc2nc(OC[C@@]45CCCN4C[C@H](F)C5)nc(N4[C@@H]5CC[C@H]4CN(CC(C)O)C5)c23)c1C(F)(F)F` (stereo partly drawn) [Ex-112], the IC50 [1] was 14700 nM, the IC50 [2] was greater than 11100 nM and the IC50 [3] was greater than 11100 nM. The IC50 [4] was 6770 nM.
`Cc1cc2[nH]ncc2c(-c2nccc3c2sc2nc(OC[C@@]45CCCN4C[C@H](F)C5)nc(N4C[C@H]5CC[C@@H](C4)N5CC(C)O)c23)c1C(F)(F)F` (stereo partly drawn) [Ex-113, 1-((1R,5S)-3-(2-(((2R,7aS)-2-fluorotetrahydro-1H-pyrrolizin-7a(5H)-yl)methoxy)-8-(6-methyl-5-(trifluoromethyl)-1H-indazol-4-yl)pyrido[4′,3′:4,5]thieno[2,3-d]pyrimidin-4-yl)-3,8-diazabicyclo[3.2.1]octan-8-yl)propan-2-ol] showed an IC50 [1] of 2380 nM, an IC50 [2] of 1850 nM and an IC50 [3] of 1110 nM. For the same compound, the IC50 [4] was 492 nM.
In the case of `C#Cc1c(F)ccc2cc3[nH]ncc3c(-c3nccc4c3sc3nc(OC[C@@]56CCCN5C/C(=C\F)C6)nc(N5C[C@@H]6C[C@H](O)[C@H](C5)N6)c34)c12` [Ex-114, (1S,5S,6S)-3-(8-(5-ethynyl-6-fluoro-1H-benzo[f]indazol-4-yl)-2-(((S,Z)-2-(fluoromethylene)tetrahydro-1H-pyrrolizin-7a(5H)-yl)methoxy)pyrido[4′,3′:4,5]thieno[2,3-d]pyrimidin-4-yl)-3,8-diazabicyclo[3.2.1]octan-6-ol], the IC50 [1] is reported as 97 nM, the IC50 [2] is reported as 37.7 nM and the IC50 [3] is reported as 36.2 nM. The IC50 [4] was 1.81 nM.
`FC(F)(F)C1(COc2nc(N3C[C@H]4CC[C@@H](C3)N4)c3c(n2)sc2c(-c4c(C5CC5)c(Cl)cc5[nH]ncc45)nccc23)CCOCC1` [Ex-118, 4-((1R,5S)-3,8-diazabicyclo[3.2.1]octan-3-yl)-8-(6-chloro-5-cyclopropyl-1H-indazol-4-yl)-2-((4-(trifluoromethyl)tetrahydro-2H-pyran-4-yl)methoxy)pyrido[4′,3′:4,5]thieno[2,3-d]pyrimidine] was tested, and the IC50 [1] was 4880 nM, the IC50 [2] was greater than 11100 nM and the IC50 [3] was 6270 nM. For the same compound, the IC50 [4] was 3200 nM.
